# Experiments:
# Type in all cases: in vivo
# [1] = test system: wheat; assay: Test Example 4: effect on crop by soil treatment (symbol e); conditions: for e: wheat, effect on crop grade: application herbicide amount 320 g/ha
# Procedure, shortened: (§1)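 Plants are raised in a greenhouse (25° C. to 30° C.) from spot-sown seed, which sits under about 1.5 cm of sterilized diluvial soil in a box shared with weed species.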
# [2] = test system: beet; assay: Test Example 5: effect on crop by foliage application, plastic box (symbol f); conditions: 320 g/ha, 3 weeks after application
# Procedure, shortened: (§2)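 A greenhouse held between 25° C. and 30° C. was used to grow plants sown spot-wise, beneath ~1.5 cm of soil, in boxes of sterilized diluvial soil.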
# [3] = test system: Avena fatua; assay: Test Example 5: herbicidal effect by foliage application, plastic box (symbol I); conditions: 320 g/ha, 3 weeks after application
# Procedure, shortened: (§3)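 Herbicide, formulated as an emulsion and diluted in water, is sprayed onto the aerial parts of 14-day seedlings. These were grown at 25° C. to 30° C. in sterilized diluvial soil; effects are graded after 3 weeks.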
# [4] = test system: Apera spica-venti; assay: Test Example 5: herbicidal effect by foliage application, plastic box (symbol L); conditions: 320 g/ha, 3 weeks after application
# Procedure, shortened: as §3
# [5] = test system: Veronica persica; assay: Test Example 4: herbicidal effect by soil treatment (symbol R); conditions: 320 g/ha
# Procedure, shortened: (§4)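 Seeds were sown in sterilized diluvial soil, covered with about 1.5 cm of soil, and the soil surface was sprayed with a water-diluted emulsion of the compound at a predetermined rate. Plants grew in a greenhouse at 25° C. to 30° C.; effects were scored visually 3 weeks after application.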
# [6] = test system: soybean; assay: Test Example 4: effect on crop by soil treatment (symbol d); conditions: for d: soybean, effect on crop grade: application herbicide amount 320 g/ha
# Procedure, shortened: as §1
# [7] = test system: Scirpus juncoides; assay: Test Example 2: herbicidal activity, application during weed generation in submerged conditions (symbol B); conditions: Table 23; application herbicide amount 320 g/ha; grade 0-5 by criteria of Test Example 1
# Procedure, shortened: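 Each pot contained alluvial soil under 4 cm of water with seeds of all three weeds sown together. Following growth at 25° C. to 30° C. to the one- to two-leaf stage, the floodwater received diluted emulsion at a predetermined amount; visual assessment followed at 3 weeks.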
# [8] = test system: Echinochloa crus-galli var. crus-galli; assay: Test Example 5: herbicidal effect by foliage application, plastic box (symbol H); conditions: 320 g/ha, 3 weeks after application
# Procedure, shortened: as §3
# [9] = test system: Stellaria media; assay: Test Example 4: herbicidal effect by soil treatment (symbol P)
# Procedure, shortened: as §4
# [10] = test system: corn; assay: Test Example 4: effect on crop by soil treatment (symbol c); conditions: for c: corn, effect on crop grade: application herbicide amount 320 g/ha
# Procedure, shortened: as §1
# [11] = test system: Amaranthus retroflexus; assay: Test Example 5: herbicidal effect by foliage application, plastic box (symbol N); conditions: 320 g/ha, 3 weeks after application
# Procedure, shortened: as §3
# [12] = test system: rapeseed; assay: Test Example 5: effect on crop by foliage application, plastic box (symbol g); conditions: 320 g/ha, 3 weeks after application
# Procedure, shortened: as §2
# [13] = test system: Lolium multiflorum Lam.; assay: Test Example 5: herbicidal effect by foliage application, plastic box (symbol K); conditions: 320 g/ha, 3 weeks after application
# Procedure, shortened: as §3
# [14] = test system: Echinochloa crus-galli var. crus-galli; assay: Test Example 3: herbicidal effect by foliage application, Wagner pot (symbol H); conditions: application herbicide amount 320 g/ha
# Procedure, shortened: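 Seeds sown in alluvial soil kept under 0.1–0.5 cm water, greenhouse 25–30 °C; 14 d growth. Leaves treated by small sprayer with water-diluted emulsion at a predetermined rate. Effect graded by set scale, 3 weeks.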
# [15] = test system: Galium spurium; assay: Test Example 4: herbicidal effect by soil treatment (symbol Q)
# Procedure, shortened: as §4
# [16] = test system: Apera spica-venti; assay: Test Example 4: herbicidal effect by soil treatment (symbol L); conditions: application herbicide amount 320 g/ha
# Procedure, shortened: as §4
# [17] = application herbicide amount 320 g/ha
SMILES,"Herbicidal effect grade, B: Scirpus juncoides [7]","herbicidal effect on H (Echinochloa crus-galli var. crus-galli), grade 0-5 [14]","e: wheat, effect on crop grade [1]","f: beet, effect on crop grade [2]","I: Avena fatua, herbicidal effect grade [3]","L: Apera spica-venti, herbicidal effect grade [4]","L: Apera spica-venti, herbicidal effect grade [16]","d: soybean, effect on crop grade [6]","H: Echinochloa crus-galli var. crus-galli, herbicidal effect grade [8]","P: Stellaria media, herbicidal effect grade [9, 17]","c: corn, effect on crop grade [10]","N: Amaranthus retroflexus, herbicidal effect grade [11]","g: rapeseed, effect on crop grade [12]","K: Lolium multiflorum Lam., herbicidal effect grade [13]","Q: Galium spurium, herbicidal effect grade [15, 17]",also measured
CON=C(C)CC1CC(OS(=O)(=O)CCCCl)=C(c2c(C)cc(C)cc2C)C1=O (stereo not drawn) [1-142],4 (Herbicidal ratio of 70% or higher and lower than 90%),5 (Herbicidal ratio of 90% or more (almost completely withered)),–,–,–,–,–,–,–,–,–,–,–,–,–,"e: wheat, effect grade on crop ([1]; 320 g/ha): 3 (Herbicidal ratio of 40% or higher and lower than 70%); f: beet, effect on crop (criteria 0-5) [2]: 3 (Herbicidal ratio of 40% or higher and lower than 70%); I: Avena fatua, herbicidal effect (criteria 0-5) [3]: 5 (Herbicidal ratio of 90% or more (almost completely withered)); L: Apera spica-venti, herbicidal effect (criteria 0-5) [4]: 5 (Herbicidal ratio of 90% or more (almost completely withered)); R: Veronica persica, herbicidal effect grade [5]: 0 (Herbicidal ratio of 5% or lower (almost no effect)); d: soybean, effect grade on crop ([6]; 320 g/ha): 0 (Herbicidal ratio of 5% or lower (almost no effect)); H: Echinochloa crus-galli var. crus-galli, herbicidal effect (criteria 0-5) [8]: 5 (Herbicidal ratio of 90% or more (almost completely withered)); P: Stellaria media, herbicidal effect grade ([9]; 320 g/ha): 0 (Herbicidal ratio of 5% or lower (almost no effect)); c: corn, effect grade on crop ([10]; 320 g/ha): 0 (Herbicidal ratio of 5% or lower (almost no effect)); N: Amaranthus retroflexus, herbicidal effect (criteria 0-5) [11]: 0 (Herbicidal ratio of 5% or lower (almost no effect)); g: rapeseed, effect on crop (criteria 0-5) [12]: 4 (Herbicidal ratio of 70% or higher and lower than 90%); K: Lolium multiflorum Lam., herbicidal effect (criteria 0-5) [13]: 5 (Herbicidal ratio of 90% or more (almost completely withered)); Q: Galium spurium, herbicidal effect grade ([15]; 320 g/ha): 0 (Herbicidal ratio of 5% or lower (almost no effect))"
COCC(=O)CC1CC(O)=C(c2c(C)cc(C)cc2C)C1=O (stereo not drawn) [2-007],0 (Herbicidal ratio of 5% or lower (almost no effect)),5 (Herbicidal ratio of 90% or more (almost completely withered)),0 (Herbicidal ratio of 5% or lower (almost no effect)),0 (Herbicidal ratio of 5% or lower (almost no effect)),0 (Herbicidal ratio of 5% or lower (almost no effect)),3 (Herbicidal ratio of 40% or higher and lower than 70%),3 (Herbicidal ratio of 40% or higher and lower than 70%),0 (Herbicidal ratio of 5% or lower (almost no effect)),1 (Herbicidal ratio of 5% or higher and lower than 20%),0 (Herbicidal ratio of 5% or lower (almost no effect)),0 (Herbicidal ratio of 5% or lower (almost no effect)),0 (Herbicidal ratio of 5% or lower (almost no effect)),1 (Herbicidal ratio of 5% or higher and lower than 20%),4 (Herbicidal ratio of 70% or higher and lower than 90%),0 (Herbicidal ratio of 5% or lower (almost no effect)),–
CCOC(=O)C(C(=O)C(C)C)C1CC(O)=C(c2c(C)cc(C)cc2C)C1=O (stereo not drawn) [2-009],0 (Herbicidal ratio of 5% or lower (almost no effect)),3 (Herbicidal ratio of 40% or higher and lower than 70%),0 (Herbicidal ratio of 5% or lower (almost no effect)),0 (Herbicidal ratio of 5% or lower (almost no effect)),0 (Herbicidal ratio of 5% or lower (almost no effect)),0 (Herbicidal ratio of 5% or lower (almost no effect)),0 (Herbicidal ratio of 5% or lower (almost no effect)),0 (Herbicidal ratio of 5% or lower (almost no effect)),3 (Herbicidal ratio of 40% or higher and lower than 70%),0 (Herbicidal ratio of 5% or lower (almost no effect)),0 (Herbicidal ratio of 5% or lower (almost no effect)),0 (Herbicidal ratio of 5% or lower (almost no effect)),0 (Herbicidal ratio of 5% or lower (almost no effect)),1 (Herbicidal ratio of 5% or higher and lower than 20%),0 (Herbicidal ratio of 5% or lower (almost no effect)),–
Cc1cc(C)c(C2=C(O)CC(CC(=O)C3CC3)C2=O)c(C)c1 (stereo not drawn) [2-017],4 (Herbicidal ratio of 70% or higher and lower than 90%),5 (Herbicidal ratio of 90% or more (almost completely withered)),0 (Herbicidal ratio of 5% or lower (almost no effect)),0 (Herbicidal ratio of 5% or lower (almost no effect)),4 (Herbicidal ratio of 70% or higher and lower than 90%),3 (Herbicidal ratio of 40% or higher and lower than 70%),3 (Herbicidal ratio of 40% or higher and lower than 70%),0 (Herbicidal ratio of 5% or lower (almost no effect)),5 (Herbicidal ratio of 90% or more (almost completely withered)),0 (Herbicidal ratio of 5% or lower (almost no effect)),0 (Herbicidal ratio of 5% or lower (almost no effect)),0 (Herbicidal ratio of 5% or lower (almost no effect)),4 (Herbicidal ratio of 70% or higher and lower than 90%),5 (Herbicidal ratio of 90% or more (almost completely withered)),0 (Herbicidal ratio of 5% or lower (almost no effect)),–
CCc1cc(Br)cc(C)c1C1=C(O)CC(CC(C)=NOC)C1=O (stereo not drawn) [6-001],0 (Herbicidal ratio of 5% or lower (almost no effect)),5 (Herbicidal ratio of 90% or more (almost completely withered)),5 (Herbicidal ratio of 90% or more (almost completely withered)),0 (Herbicidal ratio of 5% or lower (almost no effect)),5 (Herbicidal ratio of 90% or more (almost completely withered)),5 (Herbicidal ratio of 90% or more (almost completely withered)),5 (Herbicidal ratio of 90% or more (almost completely withered)),0 (Herbicidal ratio of 5% or lower (almost no effect)),5 (Herbicidal ratio of 90% or more (almost completely withered)),0 (Herbicidal ratio of 5% or lower (almost no effect)),5 (Herbicidal ratio of 90% or more (almost completely withered)),0 (Herbicidal ratio of 5% or lower (almost no effect)),2 (Herbicidal ratio of 20% or higher and lower than 40%),5 (Herbicidal ratio of 90% or more (almost completely withered)),0 (Herbicidal ratio of 5% or lower (almost no effect)),–

# Reference: US11000033B2, “Ketone or oxime compound, and herbicide” (NISSAN CHEMICAL CORPORATION, priority 2014, dated 2021)
